Patent publication US20220370440A1 (Lead Discovery Center GmbH, priority 2018, published 2022)

Tests used:
[1] = system: H1975; assay: H1975 CellTiter-Glo; type: cell-based; conditions: Homo sapiens, NCI-H1975; 72 h compound incubation; read-out: H1975 CTG IC50
In short: (§1)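 In this viability format, compound-treated cells sit 72 h at 37° C. before ATP content is quantified by luminescence, and IC50 is taken from the fitted dose-response curve.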

[2] = target: EGFR wt (Homo sapiens, UniProt P00533); assay: EGFR wt Lance assay; type: biochemical
Procedure: (§2) Inhibition is indicated as […] [nM] (“−”=not measured). Compounds having an activity designated as “A” provided an IC50≤100 nM; compounds having an activity designated as “B” provided an 100 nM<IC50≤500 nM; compounds having an activity designated as “C” provided an 500 nM<IC50≤1000 nM; compounds having an activity designated as “D” provided an 1000 nM<IC50≤100000 nM; and compounds having an activity designated as “E” provided an IC50>10000 nM.

[3] = Metabolic stability in mouse liver microsomes without cofactor NADPH; type: in vitro ADME; conditions: 3 μM test compound, mouse liver microsomes, without NADPH, 50 min, 37° C., LC-MS/MS
In short: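 Cofactor-free incubation: no NADPH added to mouse liver microsomes, with compound at 3 μM and 37° C. Remaining parent was quantified by LC-MS/MS at time points up to 50 minutes to track depletion.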

[4] = target: EGFR T790ML858R (Homo sapiens, UniProt P00533, L858R/T790M); assay: EGFR T790ML858R Lance assay; type: biochemical
Procedure: as §2

[5] = target: T1, HER2 INS YVMA (Homo sapiens, UniProt P04626, INS775YVMA); assay: Lance Kinase Activity Assay, HER2 INS YVMA (Her2 Exon 20 INSYVMA Lance); type: biochemical; conditions: biochemical Lance assay
T1 construct: purchased DPF
In short: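 IC50 was fitted to sigmoidal curves of TR-FRET signal (665 and 615 nm emission after 340 nm excitation) from an Eu anti-phospho antibody binding the phosphorylated ULight peptide. The ATP-started reaction ran 1 h at RT and was then quenched with 10 mM EDTA plus antibody for a further 1 h. Compounds were tested as 8-point, 3-fold dilutions.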

[6] = target: Her2 Exon 20 INSYVMA Ba/F3 (Homo sapiens, UniProt P04626, DUP772-775, cells depend on it); assay: Her2 Exon 20 INSYVMA Ba/F3 CellTiter-Glo; type: cell-based; conditions: CellTiter-Glo, 72 h, read-out: Her2 Exon 20 INSYVMA Ba/F3 CTG IC50
In short: (§3)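 Seed Ba/F3 cells; 24 h, 37 °C/5% CO2. Add cpds in DMSO, multiple concs; 72 h. CellTiter-Glo, 10 min RT, luminescence. IC50 by curve fit. Z′ ≥0.5 from DMSO vs 10 μM staurosporine.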

[7] = system: A431; assay: A431 CellTiter-Glo; type: cell-based; conditions: Homo sapiens, A-431; 72 h compound incubation; read-out: A431 CTG IC50
In short: as §1

[8] = target: EGFR Exon 20 INSNPH Ba/F3 (Homo sapiens, UniProt P00533, DUP771-773, cells depend on it); assay: EGFR Exon 20 INSNPH Ba/F3 CellTiter-Glo; type: cell-based; conditions: CellTiter-Glo, 72 h, read-out: EGFR Exon 20 INSNPH Ba/F3 CTG IC50
In short: as §3

EGFR T790ML858R, sequence (P00533 25-1210 T790M/L858R): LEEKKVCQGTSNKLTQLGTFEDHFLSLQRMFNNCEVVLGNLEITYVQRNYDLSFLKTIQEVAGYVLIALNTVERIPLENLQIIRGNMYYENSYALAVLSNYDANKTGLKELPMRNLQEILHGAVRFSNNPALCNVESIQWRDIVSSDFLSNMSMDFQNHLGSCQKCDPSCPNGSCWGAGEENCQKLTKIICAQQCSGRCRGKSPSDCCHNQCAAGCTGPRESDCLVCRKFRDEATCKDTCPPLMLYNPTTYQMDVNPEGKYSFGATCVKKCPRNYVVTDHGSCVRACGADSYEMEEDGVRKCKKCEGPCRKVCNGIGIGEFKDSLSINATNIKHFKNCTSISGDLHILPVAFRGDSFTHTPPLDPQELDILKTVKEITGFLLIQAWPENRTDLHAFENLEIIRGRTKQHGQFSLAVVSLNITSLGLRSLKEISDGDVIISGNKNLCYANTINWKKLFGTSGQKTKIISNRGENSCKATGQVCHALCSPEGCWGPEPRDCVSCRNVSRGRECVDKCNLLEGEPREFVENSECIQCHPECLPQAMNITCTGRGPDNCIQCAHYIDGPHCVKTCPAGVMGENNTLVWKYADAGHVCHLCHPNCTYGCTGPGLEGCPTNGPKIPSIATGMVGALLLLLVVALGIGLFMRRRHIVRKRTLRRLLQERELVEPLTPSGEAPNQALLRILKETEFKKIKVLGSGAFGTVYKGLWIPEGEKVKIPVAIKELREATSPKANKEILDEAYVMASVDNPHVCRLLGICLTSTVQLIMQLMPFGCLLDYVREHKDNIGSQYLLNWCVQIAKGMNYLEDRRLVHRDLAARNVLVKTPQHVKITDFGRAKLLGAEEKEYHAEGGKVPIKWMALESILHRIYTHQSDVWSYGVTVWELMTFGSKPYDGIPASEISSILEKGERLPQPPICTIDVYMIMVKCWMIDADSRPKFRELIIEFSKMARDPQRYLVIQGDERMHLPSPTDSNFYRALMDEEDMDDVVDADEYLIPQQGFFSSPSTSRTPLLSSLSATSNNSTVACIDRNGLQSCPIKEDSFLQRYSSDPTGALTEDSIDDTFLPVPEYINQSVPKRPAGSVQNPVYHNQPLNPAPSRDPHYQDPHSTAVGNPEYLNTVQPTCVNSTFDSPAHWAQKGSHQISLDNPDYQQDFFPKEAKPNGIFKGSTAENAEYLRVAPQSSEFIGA
T1 sequence (P04626 with tags, fused parts or gaps INS775YVMA): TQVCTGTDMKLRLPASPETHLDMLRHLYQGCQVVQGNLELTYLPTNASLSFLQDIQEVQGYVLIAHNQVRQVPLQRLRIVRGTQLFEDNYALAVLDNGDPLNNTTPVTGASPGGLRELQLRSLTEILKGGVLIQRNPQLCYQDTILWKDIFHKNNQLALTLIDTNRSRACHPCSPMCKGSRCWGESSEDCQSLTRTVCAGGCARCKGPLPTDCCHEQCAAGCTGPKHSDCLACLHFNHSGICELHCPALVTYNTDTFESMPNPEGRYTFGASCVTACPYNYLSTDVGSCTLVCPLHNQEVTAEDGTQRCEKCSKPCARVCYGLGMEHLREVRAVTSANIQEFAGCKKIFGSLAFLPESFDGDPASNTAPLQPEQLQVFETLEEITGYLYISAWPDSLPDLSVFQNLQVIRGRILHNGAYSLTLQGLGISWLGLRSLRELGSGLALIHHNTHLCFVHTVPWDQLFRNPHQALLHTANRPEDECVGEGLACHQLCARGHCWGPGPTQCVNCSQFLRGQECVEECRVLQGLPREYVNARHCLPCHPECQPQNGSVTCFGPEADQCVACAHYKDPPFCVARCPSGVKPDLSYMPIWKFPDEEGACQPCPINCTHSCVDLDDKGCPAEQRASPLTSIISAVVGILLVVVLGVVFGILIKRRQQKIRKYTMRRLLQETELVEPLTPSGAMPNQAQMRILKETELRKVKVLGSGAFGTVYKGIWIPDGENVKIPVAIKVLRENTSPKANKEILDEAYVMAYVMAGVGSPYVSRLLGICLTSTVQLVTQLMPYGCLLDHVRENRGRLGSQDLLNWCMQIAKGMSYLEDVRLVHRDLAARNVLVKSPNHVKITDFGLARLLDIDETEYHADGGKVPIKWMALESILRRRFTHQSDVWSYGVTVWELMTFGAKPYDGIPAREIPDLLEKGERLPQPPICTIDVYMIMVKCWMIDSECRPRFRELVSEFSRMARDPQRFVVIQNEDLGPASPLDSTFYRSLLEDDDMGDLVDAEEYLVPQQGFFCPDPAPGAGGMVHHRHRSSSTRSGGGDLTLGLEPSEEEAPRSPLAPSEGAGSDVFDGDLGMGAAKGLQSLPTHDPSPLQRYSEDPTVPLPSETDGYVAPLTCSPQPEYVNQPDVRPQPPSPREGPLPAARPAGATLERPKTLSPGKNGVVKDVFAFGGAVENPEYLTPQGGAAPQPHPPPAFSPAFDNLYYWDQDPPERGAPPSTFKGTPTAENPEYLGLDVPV
EGFR Exon 20 INSNPH Ba/F3, sequence (P00533 with tags, fused parts or gaps DUP771-773): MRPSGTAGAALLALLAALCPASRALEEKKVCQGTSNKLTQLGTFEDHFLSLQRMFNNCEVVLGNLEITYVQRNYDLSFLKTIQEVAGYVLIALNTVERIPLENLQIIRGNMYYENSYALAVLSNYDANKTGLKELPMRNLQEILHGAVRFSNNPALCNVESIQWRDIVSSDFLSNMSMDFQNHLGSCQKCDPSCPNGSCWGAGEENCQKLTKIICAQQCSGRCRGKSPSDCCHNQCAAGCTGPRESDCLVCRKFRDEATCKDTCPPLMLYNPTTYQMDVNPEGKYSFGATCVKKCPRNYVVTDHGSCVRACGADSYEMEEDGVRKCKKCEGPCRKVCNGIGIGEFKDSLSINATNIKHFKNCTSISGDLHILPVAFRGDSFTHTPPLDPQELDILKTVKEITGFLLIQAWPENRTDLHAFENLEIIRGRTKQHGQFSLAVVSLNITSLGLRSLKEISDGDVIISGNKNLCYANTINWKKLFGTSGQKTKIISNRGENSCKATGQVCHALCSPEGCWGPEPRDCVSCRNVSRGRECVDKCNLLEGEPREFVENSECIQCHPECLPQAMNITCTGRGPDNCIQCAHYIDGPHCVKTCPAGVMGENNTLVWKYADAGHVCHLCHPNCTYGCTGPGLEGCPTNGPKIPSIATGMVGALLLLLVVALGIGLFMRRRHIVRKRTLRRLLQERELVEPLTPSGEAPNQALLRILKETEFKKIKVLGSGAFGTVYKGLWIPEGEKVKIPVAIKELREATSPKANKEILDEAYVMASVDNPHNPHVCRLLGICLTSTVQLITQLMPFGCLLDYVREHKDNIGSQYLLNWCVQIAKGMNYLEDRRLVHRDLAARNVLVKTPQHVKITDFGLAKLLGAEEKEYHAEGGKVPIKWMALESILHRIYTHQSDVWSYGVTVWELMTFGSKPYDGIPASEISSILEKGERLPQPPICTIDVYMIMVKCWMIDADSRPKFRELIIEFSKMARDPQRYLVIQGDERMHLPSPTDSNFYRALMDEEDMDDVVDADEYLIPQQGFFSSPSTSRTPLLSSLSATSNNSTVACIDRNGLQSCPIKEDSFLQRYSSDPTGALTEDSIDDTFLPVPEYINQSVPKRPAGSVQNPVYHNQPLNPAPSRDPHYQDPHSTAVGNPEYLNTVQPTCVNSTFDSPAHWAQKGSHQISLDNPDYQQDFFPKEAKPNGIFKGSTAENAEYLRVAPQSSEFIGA
EGFR wt, sequence (P00533 25-1210): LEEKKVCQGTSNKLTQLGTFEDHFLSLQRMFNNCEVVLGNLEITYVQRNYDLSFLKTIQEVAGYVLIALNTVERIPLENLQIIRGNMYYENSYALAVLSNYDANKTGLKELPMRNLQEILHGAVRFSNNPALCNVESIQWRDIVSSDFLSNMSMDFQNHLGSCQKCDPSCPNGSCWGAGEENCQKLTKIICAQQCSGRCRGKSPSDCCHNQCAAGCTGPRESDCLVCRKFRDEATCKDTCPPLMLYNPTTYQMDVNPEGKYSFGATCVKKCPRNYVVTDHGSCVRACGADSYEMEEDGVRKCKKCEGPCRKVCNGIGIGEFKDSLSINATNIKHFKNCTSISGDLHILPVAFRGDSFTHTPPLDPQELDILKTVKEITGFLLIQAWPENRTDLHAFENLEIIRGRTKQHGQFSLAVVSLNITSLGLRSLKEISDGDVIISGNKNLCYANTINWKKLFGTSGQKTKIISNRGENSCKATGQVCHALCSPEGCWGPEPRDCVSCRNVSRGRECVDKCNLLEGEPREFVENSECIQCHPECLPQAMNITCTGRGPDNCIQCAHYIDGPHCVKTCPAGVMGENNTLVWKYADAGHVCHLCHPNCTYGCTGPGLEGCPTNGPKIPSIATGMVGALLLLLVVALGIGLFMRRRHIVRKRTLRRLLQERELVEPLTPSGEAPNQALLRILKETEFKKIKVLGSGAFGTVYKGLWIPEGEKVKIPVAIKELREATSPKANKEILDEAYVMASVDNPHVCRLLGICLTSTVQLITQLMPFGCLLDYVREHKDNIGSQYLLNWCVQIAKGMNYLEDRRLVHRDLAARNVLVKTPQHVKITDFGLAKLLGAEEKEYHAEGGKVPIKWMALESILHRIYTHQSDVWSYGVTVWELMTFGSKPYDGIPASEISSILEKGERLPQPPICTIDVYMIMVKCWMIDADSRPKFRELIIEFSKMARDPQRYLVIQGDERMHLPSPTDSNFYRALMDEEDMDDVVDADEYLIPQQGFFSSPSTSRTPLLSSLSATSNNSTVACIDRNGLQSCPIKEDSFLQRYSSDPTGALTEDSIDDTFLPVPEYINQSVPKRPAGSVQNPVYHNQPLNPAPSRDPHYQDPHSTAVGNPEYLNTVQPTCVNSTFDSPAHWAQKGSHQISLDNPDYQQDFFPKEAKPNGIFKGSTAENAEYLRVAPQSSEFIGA

IC50 [1] [nM] | IC50 [2] [nM] | Stability in presence of mouse liver microsomes without cofactor NADPH [% remaining after 50 min] [3] [% remaining after 50 min] | IC50 [4] [nM] | IC50 [5] [nM] | GI50 [6] [nM] | IC50 [7] [nM] | GI50 [8] [nM] | Structure (SMILES)
100 to 500 | ≤ 100 | >99 | ≤ 100 | ≤ 100 | 100 to 500 | 500 to 1000 | 100 to 500 | C=CC(=O)N1CCOc2ccc(-c3c(-c4ccc(N5CCN(C(C)C)CC5)cc4)[nH]c4nccc(Cl)c34)cc21 [Example 85, 1-(6-(4-chloro-2-(4-(4-isopropylpiperazin-1-yl)phenyl)-1H-pyrrolo[2,3-b]pyridin-3-yl)-2H-benzo[b][1,4]oxazin-4(3H)-yl)prop-2-en-1-one]
100 to 500 | ≤ 100 | >99 | ≤ 100 | ≤ 100 | 1000 to 10000 | 1000 to 100000 | 1000 to 10000 | C=CC(=O)N1CCCc2ccc(-c3c(-c4cccc(OCCN(C)C)c4)[nH]c4nccc(Cl)c34)cc21 [Example 88, 1-(7-(4-chloro-2-(3-(2-(dimethylamino)ethoxy)phenyl)-1H-pyrrolo[2,3-b]pyridin-3-yl)-3,4-dihydroquinolin-1(2H)-yl)prop-2-en-1-one]
100 to 500 | ≤ 100 | >99 | ≤ 100 | ≤ 100 | 500 to 1000 | 1000 to 100000 | 500 to 1000 | C=CC(=O)N1CCCc2ccc(-c3c(-c4ccc(N5CCN(C(C)C)CC5)cc4)[nH]c4nccc(Cl)c34)cc21 [Example 91, 1-(7-(4-chloro-2-(4-(4-isopropylpiperazin-1-yl)phenyl)-1H-pyrrolo[2,3-b]pyridin-3-yl)-3,4-dihydroquinolin-1(2H)-yl)prop-2-en-1-one]
500 to 1000 | ≤ 100 | >99 | ≤ 100 | ≤ 100 | 500 to 1000 | 1000 to 100000 | 1000 to 10000 | C=CC(=O)N1CCCc2ccc(-c3c(-c4ccc(OCCN(C)C)cc4)[nH]c4nccc(Cl)c34)cc21 [Example 92, 1-(7-(4-chloro-2-(4-(2-(dimethylamino)ethoxy)phenyl)-1H-pyrrolo[2,3-b]pyridin-3-yl)-3,4-dihydroquinolin-1(2H)-yl)prop-2-en-1-one]
500 to 1000 | ≤ 100 | >99 | ≤ 100 | 100 to 500 | 500 to 1000 | 1000 to 100000 | 1000 to 10000 | C=CC(=O)N1CCCc2ccc(-c3c(-c4ccc(N5CCN(C)CC5)nc4)[nH]c4nccc(Cl)c34)cc21 [Example 93, 1-(7-(4-chloro-2-(6-(4-methylpiperazin-1-yl)pyridin-3-yl)-1H-pyrrolo[2,3-b]pyridin-3-yl)-3,4-dihydroquinolin-1(2H)-yl)prop-2-en-1-one]
500 to 1000 | ≤ 100 | >99 | ≤ 100 | ≤ 100 | 1000 to 10000 | 1000 to 100000 | 1000 to 10000 | C=CC(=O)N1CCCc2ccc(-c3c(-c4cccc(CN5CCN(C)CC5)c4)[nH]c4nccc(Cl)c34)cc21 [Example 95, 1-(7-(4-chloro-2-(3-((4-methylpiperazin-1-yl)methyl)phenyl)-1H-pyrrolo[2,3-b]pyridin-3-yl)-3,4-dihydroquinolin-1(2H)-yl)prop-2-en-1-one]
≤ 100 | ≤ 100 | >99 | ≤ 100 | ≤ 100 | 100 to 500 | 100 to 500 | ≤ 100 | C=CC(=O)Nc1cc(-c2c(-c3ccc(N4CCN(C)CC4)cc3)[nH]c3ncc(C#N)cc23)ccc1C [Example 97, N-(5-(5-cyano-2-(4-(4-methylpiperazin-1-yl)phenyl)-1H-pyrrolo[2,3-b]pyridin-3-yl)-2-methylphenyl)acrylamide 2,2,2-trifluoroacetate]
100 to 500 | ≤ 100 | >99 | ≤ 100 | ≤ 100 | 100 to 500 | 500 to 1000 | 100 to 500 | C=CC(=O)N1CCOc2ccc(-c3c(-c4ccnc(N5CCN(C)CC5)c4)[nH]c4nccc(Cl)c34)cc21 [Example 98, 1-(6-(4-chloro-2-(2-(4-methylpiperazin-1-yl)pyridin-4-yl)-1H-pyrrolo[2,3-b]pyridin-3-yl)-2H-benzo[b][1,4]oxazin-4(3H)-yl)prop-2-en-1-one 2,2,2-trifluoroacetate]
100 to 500 | ≤ 100 | >99 | ≤ 100 | ≤ 100 | 100 to 500 | 1000 to 100000 | 100 to 500 | C=CC(=O)N1CCOc2ccc(-c3c(-c4ccc(N5CCN(CC)CC5)cc4)[nH]c4nccc(Cl)c34)cc21 [Example 99, 1-(6-(4-chloro-2-(4-(4-ethylpiperazin-1-yl)phenyl)-1H-pyrrolo[2,3-b]pyridin-3-yl)-2H-benzo[b][1,4]oxazin-4(3H)-yl)prop-2-en-1-one]
100 to 500 | ≤ 100 | >99 | ≤ 100 | ≤ 100 | 100 to 500 | 1000 to 100000 | 500 to 1000 | C=CC(=O)N1CCOc2ccc(-c3c(-c4ccc(CN5CCN(C)CC5)cc4)[nH]c4nccc(Cl)c34)cc21 [Example 100, 1-(6-(4-chloro-2-(4-((4-methylpiperazin-1-yl)methyl)phenyl)-1H-pyrrolo[2,3-b]pyridin-3-yl)-2H-benzo[b][1,4]oxazin-4(3H)-yl)prop-2-en-1-one]
≤ 100 | ≤ 100 | 89 | ≤ 100 | ≤ 100 | 100 to 500 | 500 to 1000 | 100 to 500 | C=CC(=O)N1CCc2ccc(-c3c(-c4ccc(N5CCN(C)CC5)cc4)[nH]c4nccc(OCC)c34)cc21 [Example 104, 1-(6-(4-ethoxy-2-(4-(4-methylpiperazin-1-yl)phenyl)-1H-pyrrolo[2,3-b]pyridin-3-yl)indolin-1-yl)prop-2-en-1-one 2,2,2-trifluoroacetate]
≤ 100 | ≤ 100 | 86 | ≤ 100 | ≤ 100 | 100 to 500 | 500 to 1000 | 100 to 500 | C=CC(=O)N1CCc2ccc(-c3c(-c4ccc(CN5CCN(C)CC5)cc4)[nH]c4nccc(OCC)c34)cc21 [Example 108, 1-(6-(4-ethoxy-2-(4-((4-methylpiperazin-1-yl)methyl)phenyl)-1H-pyrrolo[2,3-b]pyridin-3-yl)indolin-1-yl)prop-2-en-1-one]
≤ 100 | ≤ 100 | 77 | ≤ 100 | ≤ 100 | 100 to 500 | 500 to 1000 | 100 to 500 | C=CC(=O)N1CCc2ccc(-c3c(-c4cccc(OCCN5CCCC5)c4)[nH]c4nccc(OCC)c34)cc21 [Example 109, 1-(6-(4-ethoxy-2-(3-(2-(pyrrolidin-1-yl)ethoxy)phenyl)-1H-pyrrolo[2,3-b]pyridin-3-yl)indolin-1-yl)prop-2-en-1-one]
